For 15 compounds, IC50 results are on record in patent US10513521B2, “Compositions and methods for inhibiting BMP” (The Brigham and Women's Hospital, Inc., priority 2014, dated 2019).

Like-named read-outs stand apart in the source and are kept apart here.

For test [1], the target named is ALK1 (Homo sapiens, UniProt P37023). In words: TR-FRET enzymatic ALK kinase assay, ALK1. For orientation: In TR-FRET formats the signal depends on donor and acceptor labels being close together.
Description: (§1) Briefly, the ALKs enzymatic assay was initiated by dispense 2.5 μl enzyme in 1× kinase reaction buffer. The assay plate was then added with compounds followed by incubation at room temperature for 10 minutes. Then 2.5 μl/well substrate was added.
Test [2] deals with T1, ALK4 (Homo sapiens, UniProt P36896).
T1 sequence (P36896 24-505): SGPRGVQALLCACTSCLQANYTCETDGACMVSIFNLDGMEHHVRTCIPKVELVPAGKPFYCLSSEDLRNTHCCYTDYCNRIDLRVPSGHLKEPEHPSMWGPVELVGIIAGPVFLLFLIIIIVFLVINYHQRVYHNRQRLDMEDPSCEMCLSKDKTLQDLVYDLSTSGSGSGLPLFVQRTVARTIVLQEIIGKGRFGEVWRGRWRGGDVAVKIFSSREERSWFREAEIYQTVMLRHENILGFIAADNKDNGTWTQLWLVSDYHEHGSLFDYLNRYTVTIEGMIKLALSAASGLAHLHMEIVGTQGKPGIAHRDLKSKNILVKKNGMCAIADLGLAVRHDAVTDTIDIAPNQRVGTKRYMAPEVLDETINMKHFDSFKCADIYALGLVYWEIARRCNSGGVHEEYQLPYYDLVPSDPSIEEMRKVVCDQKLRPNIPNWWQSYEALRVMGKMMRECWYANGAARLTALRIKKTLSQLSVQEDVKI
In words: TR-FRET enzymatic ALK kinase assay, ALK4.
Description: as §1

The target in test [3] is ALK3 (Homo sapiens, UniProt P36894). Description: TR-FRET enzymatic ALK kinase assay, ALK3.
Description: as §1
Test [4] has as its target T2, ALK2 (Homo sapiens, UniProt Q04771).
T2 sequence (Q04771 21-509): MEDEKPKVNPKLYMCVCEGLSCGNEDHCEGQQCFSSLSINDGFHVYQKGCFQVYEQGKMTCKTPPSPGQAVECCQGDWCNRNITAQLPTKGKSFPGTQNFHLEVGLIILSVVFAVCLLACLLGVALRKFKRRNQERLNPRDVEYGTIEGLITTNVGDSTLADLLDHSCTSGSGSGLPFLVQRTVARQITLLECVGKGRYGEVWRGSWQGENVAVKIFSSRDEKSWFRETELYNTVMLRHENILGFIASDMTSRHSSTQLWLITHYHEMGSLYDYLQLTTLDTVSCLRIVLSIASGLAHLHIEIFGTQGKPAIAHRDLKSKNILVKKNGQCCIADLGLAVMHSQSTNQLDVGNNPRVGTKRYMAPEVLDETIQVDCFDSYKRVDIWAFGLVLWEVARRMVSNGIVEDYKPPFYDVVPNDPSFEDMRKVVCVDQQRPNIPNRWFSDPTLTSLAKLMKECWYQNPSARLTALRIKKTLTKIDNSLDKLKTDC
Description: TR-FRET enzymatic ALK kinase assay, ALK2.
Description: as §1

Test [5] concerns the target T3, ALK5 (Homo sapiens, UniProt P36897).
T3 sequence (P36897 34-503): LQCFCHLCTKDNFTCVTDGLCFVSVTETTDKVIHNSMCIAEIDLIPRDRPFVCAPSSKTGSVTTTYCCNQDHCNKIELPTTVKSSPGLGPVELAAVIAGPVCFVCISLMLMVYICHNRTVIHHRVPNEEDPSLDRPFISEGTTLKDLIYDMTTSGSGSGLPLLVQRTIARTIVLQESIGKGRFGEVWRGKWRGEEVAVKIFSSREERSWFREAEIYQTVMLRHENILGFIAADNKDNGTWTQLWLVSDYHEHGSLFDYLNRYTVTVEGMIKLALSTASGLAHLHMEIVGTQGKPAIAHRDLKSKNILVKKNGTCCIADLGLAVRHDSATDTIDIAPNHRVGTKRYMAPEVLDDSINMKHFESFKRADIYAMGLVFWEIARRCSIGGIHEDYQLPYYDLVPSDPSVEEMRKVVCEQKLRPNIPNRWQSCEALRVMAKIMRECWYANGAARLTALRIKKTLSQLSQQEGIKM
Description: TR-FRET enzymatic ALK kinase assay, ALK5.
Description: Six ALK kinase enzyme assays were developed for determination of compound activities on ALK1, ALK2, ALK3, ALK4, ALK5 and ALK6.
as §1

Test [6] deals with ALK6 (Homo sapiens, UniProt O00238). In words: TR-FRET enzymatic ALK kinase assay, ALK6.
Sequence of ALK6 (O00238 14-502): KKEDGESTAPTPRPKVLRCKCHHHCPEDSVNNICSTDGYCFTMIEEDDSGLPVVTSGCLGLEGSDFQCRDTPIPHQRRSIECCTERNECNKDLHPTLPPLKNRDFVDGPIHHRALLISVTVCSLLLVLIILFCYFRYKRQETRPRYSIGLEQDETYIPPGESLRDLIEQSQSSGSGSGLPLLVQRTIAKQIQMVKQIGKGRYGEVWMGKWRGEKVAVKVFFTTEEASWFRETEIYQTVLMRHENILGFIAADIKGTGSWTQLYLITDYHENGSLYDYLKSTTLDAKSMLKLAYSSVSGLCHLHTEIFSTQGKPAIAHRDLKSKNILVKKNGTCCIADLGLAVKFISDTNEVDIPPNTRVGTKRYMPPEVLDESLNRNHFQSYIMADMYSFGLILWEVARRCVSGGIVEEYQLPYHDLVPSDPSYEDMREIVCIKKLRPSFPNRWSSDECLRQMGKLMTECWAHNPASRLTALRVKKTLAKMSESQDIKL
Description: as §1

Sequence of ALK3 (P36894 24-532): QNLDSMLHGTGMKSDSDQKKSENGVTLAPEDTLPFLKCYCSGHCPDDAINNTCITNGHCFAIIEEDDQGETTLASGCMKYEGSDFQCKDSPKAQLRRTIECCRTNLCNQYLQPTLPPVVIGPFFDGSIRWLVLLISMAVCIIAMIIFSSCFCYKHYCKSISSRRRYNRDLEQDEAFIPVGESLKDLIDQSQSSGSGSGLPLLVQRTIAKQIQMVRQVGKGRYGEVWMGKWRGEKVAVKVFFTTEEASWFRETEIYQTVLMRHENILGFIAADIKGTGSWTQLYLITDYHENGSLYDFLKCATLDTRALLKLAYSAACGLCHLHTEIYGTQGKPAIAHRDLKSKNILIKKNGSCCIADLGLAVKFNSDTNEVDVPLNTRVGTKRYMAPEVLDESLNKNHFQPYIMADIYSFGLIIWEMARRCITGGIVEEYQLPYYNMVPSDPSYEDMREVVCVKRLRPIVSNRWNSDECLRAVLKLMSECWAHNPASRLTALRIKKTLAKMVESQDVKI
Sequence of ALK1 (P37023 22-503): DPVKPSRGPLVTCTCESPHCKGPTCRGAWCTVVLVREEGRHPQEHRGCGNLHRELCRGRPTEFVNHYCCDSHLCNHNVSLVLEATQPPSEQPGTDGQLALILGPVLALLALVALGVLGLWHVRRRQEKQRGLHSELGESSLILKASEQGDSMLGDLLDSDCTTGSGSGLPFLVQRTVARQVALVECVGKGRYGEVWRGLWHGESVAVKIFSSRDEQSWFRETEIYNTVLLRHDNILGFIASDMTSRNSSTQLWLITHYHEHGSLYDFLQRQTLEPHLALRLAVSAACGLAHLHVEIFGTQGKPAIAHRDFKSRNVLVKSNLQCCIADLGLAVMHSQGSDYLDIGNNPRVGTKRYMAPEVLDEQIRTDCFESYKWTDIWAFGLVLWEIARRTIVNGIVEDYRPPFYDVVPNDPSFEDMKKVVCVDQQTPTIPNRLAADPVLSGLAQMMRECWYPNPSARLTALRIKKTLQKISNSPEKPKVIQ

Regarding `NC1(c2ccc(-c3cnc4c(-c5ccc(S(N)(=O)=O)c6ccccc56)cnn4c3)cc2)CC1` [Compound 192, 4-(6-(4-(1-aminocyclopropyl)phenyl)pyrazolo[1,5-a]pyrimidin-3-yl)naphthalene-1-sulfonamide], the IC50 in test [1] was 650 nM; in test [2], over 10000 nM; in test [3], 4800 nM; in test [4] it was 50 nM; in test [5] it was over 10000 nM; in test [6], over 10000 nM.

Regarding `C[C@@H]1CNC[C@H](C)N1c1ccc(-c2cnc3c(-c4cccc5ccccc45)cnn3c2)cc1` [Compound 31, 6-(4-((2R,6S)-2,6-dimethylpiperazin-1-yl)phenyl)-3-(naphthalen-1-yl)pyrazolo[1,5-a]pyrimidine], the IC50 in test [1] is 51 nM; in test [2] it was 6600 nM; in test [3], 271 nM; in test [4], 17 nM; in test [5], 59600 nM; in test [6], 1080 nM.

For the compound `CS(=O)(=O)c1cccc(-c2cnn3cc(-c4ccc(OC5(CN6CCNCC6)CC5)cc4)cnc23)c1` [Compound 169, 3-(3-(methylsulfonyl)phenyl)-6-(4-(1-(piperazin-1-ylmethyl)cyclopropoxy)phenyl)pyrazolo[1,5-a]pyrimidine], the IC50 was 280 nM in test [1]; over 10000 nM in test [2]; 1500 nM in test [3]; 52 nM in test [4]; over 10000 nM in test [5]; 5700 nM in test [6].

Turning to `CC(O)c1cccc(-c2cnn3cc(-c4ccc(C5(N)CC5)cc4)cnc23)c1` (stereo not drawn) [Compound 191, 1-(3-(6-(4-(1-aminocyclopropyl)phenyl)pyrazolo[1,5-a]pyrimidin-3-yl)phenyl)ethanol], the IC50 in test [1] is 1500 nM; in test [2], over 10000 nM; in test [3] it was 5400 nM; in test [4], 120 nM; in test [5], over 10000 nM; in test [6] it was over 10000 nM.

Turning to “(3R)-1-((1-(4-(3-(3-(1-amino-2,2,2-trifluoroethyl)phenyl)pyrazolo[1,5-a]pyrimidin-6-yl)phenoxy)cyclopropyl)methyl)-3-methylpyrrolidin-3-ol [Compound 185]”, the IC50 in test [1] (read-out: Kinase Assay ALK1, enzyme assay) was 540 nM; in test [2] (read-out: Kinase Assay ALK4, enzyme assay), over 10000 nM; in test [3] (read-out: Kinase Assay ALK3, enzyme assay), 1800 nM; in test [4] (read-out: Kinase Assay ALK2, enzyme assay), 44 nM; in test [5] (read-out: Kinase Assay ALK5, enzyme assay) it was over 10000 nM; in test [6] (read-out: Kinase Assay ALK6, enzyme assay), over 10000 nM.

Take `CS(=O)(=O)c1cccc(-c2cnn3cc(-c4ccc(CCN5CCOCC5)cc4)cnc23)c1` [Compound 131, 4-(4-(3-(3-(methylsulfonyl)phenyl)pyrazolo[1,5-a]pyrimidin-6-yl)phenethyl)morpholine]: the IC50 in test [1] was 760 nM; in test [2], over 10000 nM; in test [3] it was 2300 nM; in test [4] it was 150 nM; in test [5], over 10000 nM; in test [6] it was 5100 nM.

Take `CC(O)c1cccc(-c2cnn3cc(-c4ccc(OC5(CN6CCC(O)CC6)CC5)cc4)cnc23)c1` (stereo not drawn) [Compound 174]: the IC50 was 790 nM in test [1]; over 10000 nM in test [2]; 1600 nM in test [3]; 43 nM in test [4]; over 10000 nM in test [5]; over 10000 nM in test [6].

Take `NS(=O)(=O)c1ccc(-c2cnn3cc(-c4ccc(OC(F)(F)CN5CCCCC5)cc4)cnc23)c2ccccc12` [Compound 206, 4-(6-(4-(1,1-difluoro-2-(piperidin-1-yl)ethoxy)phenyl)pyrazolo[1,5-a]pyrimidin-3-yl)naphthalene-1-sulfonamide]: the IC50 in test [1] was 4600 nM; in test [2], over 10000 nM; in test [3] it was over 10000 nM; in test [4], 1200 nM; in test [5], over 10000 nM; in test [6] it was over 10000 nM.

As for `COc1ccc2ccccc2c1-c1cnn2cc(-c3ccc(N4[C@H](C)CNC[C@@H]4C)cc3)cnc12` [Compound 34, 6-(4-((2R,6S)-2,6-dimethylpiperazin-1-yl)phenyl)-3-(2-methoxynaphthalen-1-yl)pyrazolo[1,5-a]pyrimidine], the IC50 is 1310 nM in test [1]; 12700 nM in test [2]; 4860 nM in test [3]; 249 nM in test [4]; 18500 nM in test [5]; 17400 nM in test [6].

Take `CC(O)c1cccc(-c2cnn3cc(-c4ccc(CCN5CCC(O)CC5)cc4)cnc23)c1` (stereo not drawn) [Compound 151, 1-(4-(3-(3-(1-hydroxyethyl)phenyl)pyrazolo[1,5-a]pyrimidin-6-yl)phenethyl)piperidin-4-ol]: the IC50 is 820 nM in test [1]; over 10000 nM in test [2]; 4300 nM in test [3]; 110 nM in test [4]; over 10000 nM in test [5]; over 10000 nM in test [6].

For the compound `NC(c1cccc(-c2cnn3cc(-c4ccc(OCCN5CCCC5)cc4)cnc23)c1)C(F)(F)F` (stereo not drawn) [Compound 161], the IC50 in test [1] was 1600 nM; in test [2], over 10000 nM; in test [3] it was 9400 nM; in test [4], 150 nM; in test [5] it was over 10000 nM; in test [6], over 10000 nM.

As for `C[C@@H]1CNC[C@H](C)N1c1ccc(-c2cnc3c(-c4cc(C(F)(F)F)cc(S(C)(=O)=O)c4)cnn3c2)cc1` [Compound 193, 6-(4-((2R,6S)-2,6-dimethylpiperazin-1-yl)phenyl)-3-(3-(methylsulfonyl)-5-(trifluoromethyl)phenyl)pyrazolo[1,5-a]pyrimidine], the IC50 in test [1] was 7500 nM; in test [2], over 10000 nM; in test [3], over 10000 nM; in test [4], 550 nM; in test [5], over 10000 nM; in test [6], 1200 nM.

In the case of `C[C@H](O)c1cccc(-c2cnn3cc(-c4ccc(OCCN5CCCC5)cc4)cnc23)c1` [Compound 200, (S)-1-(3-(6-(4-(2-(pyrrolidin-1-yl)ethoxy)phenyl)pyrazolo[1,5-a]pyrimidin-3-yl)phenyl)ethanol], the IC50 is 1300 nM in test [1]; over 10000 nM in test [2]; 1200 nM in test [3]; 68 nM in test [4]; over 10000 nM in test [5]; 2300 nM in test [6].

`C[C@@H](O)c1cccc(-c2cnn3cc(-c4ccc(CCN5CCC(O)CC5)cc4)cnc23)c1` [Compound 159, (R)-1-(4-(3-(3-(1-hydroxyethyl)phenyl)pyrazolo[1,5-a]pyrimidin-6-yl)phenethyl)piperidin-4-ol]: the IC50 in test [1] is 1000 nM; in test [2], over 10000 nM; in test [3], 6100 nM; in test [4] it was 180 nM; in test [5], over 10000 nM; in test [6], over 10000 nM.

Take `CC(O)c1cccc(-c2cnn3cc(-c4ccc(CCN5CCNCC5)cc4)cnc23)c1` (stereo not drawn) [Compound 171, 1-(3-(6-(4-(2-(piperazin-1-yl)ethyl)phenyl)pyrazolo[1,5-a]pyrimidin-3-yl)phenyl)ethanol]: the IC50 in test [1] is 1100 nM; in test [2] it was over 10000 nM; in test [3], 2000 nM; in test [4], 170 nM; in test [5] it was over 10000 nM; in test [6], over 10000 nM.
